# Assay results: ChEMBL document CHEMBL5244209, “Antiplasmodial and antimalarial activities of quinolone derivatives: An overview” (Eur J Med Chem, 2018)
# Assays:
# Plasmodium falciparum [1] = assay: Antimalarial activity against chloroquine-sensitive Plasmodium falciparum 3D7; format: functional, organism-based
# FM3A = assay: Cytotoxicity against mouse FM3A cells; format: functional, cell-based
# Plasmodium falciparum [2] = assay: Antiplasmodial activity against Plasmodium falciparum Dd2 infected in human Erythrocyte measured after 72 hrs by SYBR green fluorescence dye based microplate reader analysis; format: functional, organism-based
# Plasmodium falciparum [3] = assay: Antiplasmodial activity against Plasmodium falciparum D6 infected in human Erythrocyte measured after 72 hrs by SYBR green fluorescence dye based microplate reader analysis; format: functional, organism-based
# Plasmodium falciparum [4] = assay: Antiplasmodial activity against Plasmodium falciparum Tm90-C2B infected in human Erythrocyte measured after 72 hrs by SYBR green fluorescence dye based microplate reader analysis; format: functional, organism-based
# Plasmodium falciparum [5] = assay: Antimalarial activity against Antimalarial activity against chloroquine-sensitive Plasmodium falciparum FCR-3; format: functional, organism-based
# Plasmodium falciparum [6] = assay: Antimalarial activity against chloroquine-sensitive Plasmodium falciparum FCC1 measured after 48 hrs; format: functional, organism-based; settings: FCC1, 48 h
# Plasmodium falciparum [7] = assay: Antimalarial activity against chloroquine-resistant Plasmodium falciparum VNS measured after 48 hrs; format: functional, organism-based
# Plasmodium falciparum [8] = assay: Antiplasmodial activity against chloroquine-resistant Plasmodium falciparum Fcb1; format: functional, organism-based
# Plasmodium berghei = assay: Antiplasmodial activity against liver stage Plasmodium berghei ANKA infected in human HepG2 cells measured after 44 hrs; format: functional, organism-based; settings: HepG2, 44 h
# Plasmodium yoelii yoelii = assay: Antimalarial activity against hepatic stage Plasmodium yoelii yoelii 265 BY for 48 hrs with media renew every 24 hrs; format: functional, organism-based
# Plasmodium falciparum [9] = assay: Antimalarial activity against blood stage chloroquine-sensitive Plasmodium falciparum NF54-R infected in erythrocytes assessed as reduction in parasite growth preincubated for 72 hrs followed by addition of [3H]Hypoxanthine and measured after 24 hrs by liquid scintillation counting method; format: functional, organism-based; settings: Erythrocyte
# Plasmodium falciparum [10] = assay: Antiplasmodial activity against chloroquine-sensitive Plasmodium falciparum FC measured after 48 hrs; format: functional
# Plasmodium falciparum [11] = assay: Antiplasmodial activity against chloroquine-resistant Plasmodium falciparum K1 measured after 48 hrs; format: functional
# Plasmodium falciparum [12] = assay: Antiplasmodial activity against chloroquine-sensitive Plasmodium falciparum FC measured after 96 hrs; format: functional
# Plasmodium falciparum [13] = assay: Antiplasmodial activity against chloroquine-sensitive Plasmodium falciparum K1 measured after 96 hrs; format: functional
# Plasmodium falciparum [14] = assay: Antiplasmodial activity against chloroquine-sensitive Plasmodium falciparum; format: functional, organism-based
# Plasmodium falciparum [15] = assay: Antiplasmodial activity against chloroquine-resistant Plasmodium falciparum; format: functional, organism-based
# Plasmodium falciparum [16] = assay: Antiplasmodial activity against synchronized Plasmodium falciparum CS2; format: functional, organism-based
# Plasmodium falciparum [17] = assay: Antiplasmodial activity against asynchronous Plasmodium falciparum CS2; format: functional, organism-based
# Plasmodium falciparum [18] = assay: Antiplasmodial activity against synchronized Plasmodium falciparum 3D7; format: functional, organism-based
# Plasmodium falciparum [19] = assay: Antiplasmodial activity against asynchronous Plasmodium falciparum 3D7; format: functional, organism-based
# Plasmodium falciparum [20] = assay: Antiplasmodial activity against synchronized Plasmodium falciparum K1; format: functional, organism-based
# Plasmodium falciparum [21] = assay: Antiplasmodial activity against asynchronous Plasmodium falciparum K1; format: functional, organism-based
# Plasmodium falciparum [22] = assay: Antimalarial activity against blood stage chloroquine-sensitive Plasmodium falciparum 3D7 infected in erythrocytes assessed as reduction in parasite growth preincubated for 72 hrs followed by addition of [3H]Hypoxanthine and measured after 24 hrs by liquid scintillation counting method; format: functional, organism-based; settings: 3D7, Erythrocyte
# Plasmodium falciparum [23] = assay: Antiplasmodial activity against chloroquine-sensitive Plasmodium falciparum 3D7 infected in human erythrocyte incubated for 72 hrs by SYBR green I staining based fluorescence assay; format: functional, organism-based; settings: 3D7, Erythrocyte
# Plasmodium falciparum [24] = assay: Antiplasmodial activity against chloroquine-sensitive Plasmodium falciparum 3D7; format: functional, organism-based
# Plasmodium falciparum [25] = assay: Antiplasmodial activity against chloroquine-resistant Plasmodium falciparum W2; format: functional, organism-based
# Plasmodium falciparum [26] = assay: Antiplasmodial activity against chloroquine-resistant Plasmodium falciparum Palo Alto; format: functional, organism-based
# Plasmodium falciparum [27] = assay: Antiplasmodial activity against chloroquine-resistant Plasmodium falciparum FCR3; format: functional, organism-based
# Plasmodium falciparum [28] = assay: Antiplasmodial activity against chloroquine-resistant Plasmodium falciparum Bres1; format: functional, organism-based
compound,measurement,setting,value
CCOC(=O)/C(=C\n1cc(C(=O)OCC)c(=O)c2cc(F)ccc21)c1ccncc1,IC50,Plasmodium falciparum [1],8.2 µM
same,IC50,FM3A,> 24 µM
CCCCCCCc1c(C)[nH]c2cc(OC(F)(F)F)ccc2c1=O,IC50,Plasmodium falciparum [2],86 nM
same,IC50,Plasmodium falciparum [3],86 nM
same,IC50,Plasmodium falciparum [4],102 nM
CCOC(=O)/C(=C\n1cc(C(=O)OCC)c(=O)c2cc(F)ccc21)c1cccnc1,IC50,Plasmodium falciparum [1],26 µM
same,IC50,FM3A,100 µM
Cn1cc(C(=O)N/N=C/c2cccnc2)c(=O)c2cc(F)ccc21,IC50,Plasmodium falciparum [5],> 100 µM
Cn1cc(C(=O)N/N=C/c2ccncc2)c(=O)c2cc(C(F)(F)F)ccc21,IC50,Plasmodium falciparum [5],> 100 µM
Nc1ccc2c(=O)c3ccc(OCCCCCC(F)(F)F)cc3[nH]c2c1,IC50,Plasmodium falciparum [2],0.02 nM
same,IC50,Plasmodium falciparum [3],0.02 nM
same,IC50,Plasmodium falciparum [4],78 nM
CNn1cc(C(=O)O)c(=O)c2cc(F)c(N3CCN(C)CC3)cc21 [AMIFLOXACIN],IC50,Plasmodium falciparum [6],550 µM
same,IC50,Plasmodium falciparum [7],870 µM
C[C@@H]1CC[C@H]2[C@@H](C)C(=O)O[C@@H]3O[C@@]4(C)CC[C@@H]1[C@]32OO4 [ARTEMISININ],IC50,Plasmodium falciparum [2],0.6 nM
same,IC50,Plasmodium falciparum [3],0.81 nM
same,IC50,Plasmodium falciparum [4],2.1 nM
O=C1C(O)=C([C@H]2CC[C@H](c3ccc(Cl)cc3)CC2)C(=O)c2ccccc21 [ATOVAQUONE],IC50,Plasmodium falciparum [2],0.5 nM
same,IC50,Plasmodium falciparum [3],0.3 nM
same,IC50,Plasmodium falciparum [4],5090 nM
CC(C)=CCC/C(C)=C/CC/C(C)=C/Cc1c(C)[nH]c2ccccc2c1=O [AURACHIN D],IC50,Plasmodium falciparum [8],0.04 µg/mL
CCN(CC)CCCC(C)Nc1ccnc2cc(Cl)ccc12 (stereo not drawn) [CHLOROQUINE],IC50,Plasmodium berghei,> 1.2 nM
O=C(O)c1cn(C2CC2)c2cc(N3CCNCC3)c(F)cc2c1=O [CIPROFLOXACIN],IC50,Plasmodium yoelii yoelii,44 µg/mL
same,IC50,Plasmodium falciparum [9],3.4 µg/mL
same,IC50,Plasmodium falciparum [6],260 µM
same,IC50,Plasmodium falciparum [7],380 µM
same,MIC,Plasmodium falciparum [10],28.1 µg/mL
same,MIC,Plasmodium falciparum [11],27.2 µg/mL
same,MIC,Plasmodium falciparum [12],2.8 µg/mL
same,MIC,Plasmodium falciparum [13],4.4 µg/mL
same,IC50,Plasmodium falciparum [14],6.38 µg/mL
same,IC50,Plasmodium falciparum [15],6.38 µg/mL
same,IC50,Plasmodium falciparum [16],20 µM
same,IC50,Plasmodium falciparum [17],24 µM
same,IC50,Plasmodium falciparum [18],31 µM
same,IC50,Plasmodium falciparum [19],31 µM
same,IC50,Plasmodium falciparum [20],32 µM
same,IC50,Plasmodium falciparum [21],38 µM
CCn1cc(C(=O)O)c(=O)c2cc(F)c(N3CCNCC3)nc21 [ENOXACIN],IC50,Plasmodium yoelii yoelii,> 100 µg/mL
same,IC50,Plasmodium falciparum [9],1.4 µg/mL
same,IC50,Plasmodium falciparum [22],38.8 µg/mL
same,IC50,Plasmodium falciparum [6],800 µM
same,IC50,Plasmodium falciparum [7],990 µM
C[C@H]1COc2c(N3CCN(C)CC3)c(F)cc3c(=O)c(C(=O)O)cn1c23.C[C@H]1COc2c(N3CCN(C)CC3)c(F)cc3c(=O)c(C(=O)O)cn1c23.O [LEVOFLOXACIN],IC50,Plasmodium yoelii yoelii,> 100 µg/mL
same,IC50,Plasmodium falciparum [9],40.3 µg/mL
same,IC50,Plasmodium falciparum [22],112 µg/mL
same,IC50,Plasmodium falciparum [23],> 20 µM
CCn1cc(C(=O)O)c(=O)c2ccc(C)nc21 [NALIDIXIC ACID],IC50,Plasmodium yoelii yoelii,> 100 µg/mL
same,IC50,Plasmodium falciparum [9],59.1 µg/mL
same,IC50,Plasmodium falciparum [22],117 µg/mL
same,IC50,Plasmodium falciparum [23],> 20 µM
CCn1cc(C(=O)O)c(=O)c2cc(F)c(N3CCNCC3)cc21 [NORFLOXACIN],IC50,Plasmodium yoelii yoelii,17.8 µg/mL
same,IC50,Plasmodium falciparum [9],6.7 µg/mL
same,IC50,Plasmodium falciparum [22],17.2 µg/mL
same,IC50,Plasmodium falciparum [6],620 µM
same,IC50,Plasmodium falciparum [7],510 µM
same,IC50,Plasmodium falciparum [14],11.2 µg/mL
same,IC50,Plasmodium falciparum [15],11.2 µg/mL
same,IC50,Plasmodium falciparum [24],55.3 µM
same,IC50,Plasmodium falciparum [25],74.6 µM
same,IC50,Plasmodium falciparum [26],54.1 µM
same,IC50,Plasmodium falciparum [27],58.6 µM
same,IC50,Plasmodium falciparum [16],59 µM
same,IC50,Plasmodium falciparum [17],55 µM
same,IC50,Plasmodium falciparum [18],55 µM
same,IC50,Plasmodium falciparum [19],66 µM
same,IC50,Plasmodium falciparum [20],67 µM
same,IC50,Plasmodium falciparum [21],54 µM
CC1COc2c(N3CCN(C)CC3)c(F)cc3c(=O)c(C(=O)O)cn1c23 (stereo not drawn) [OFLOXACIN],IC50,Plasmodium yoelii yoelii,64 µg/mL
same,IC50,Plasmodium falciparum [9],58.6 µg/mL
same,IC50,Plasmodium falciparum [22],113 µg/mL
same,IC50,Plasmodium falciparum [6],1720 µM
same,IC50,Plasmodium falciparum [7],1770 µM
same,IC50,Plasmodium falciparum [14],22.3 µg/mL
same,IC50,Plasmodium falciparum [15],22.3 µg/mL
same,IC50,Plasmodium falciparum [24],152 µM
same,IC50,Plasmodium falciparum [25],112 µM
same,IC50,Plasmodium falciparum [26],114 µM
same,IC50,Plasmodium falciparum [27],158 µM
same,IC50,Plasmodium falciparum [28],195 µM
CCn1cc(C(=O)O)c(=O)c2cc3c(cc21)OCO3 [OXOLINIC ACID],IC50,Plasmodium yoelii yoelii,> 100 µg/mL
same,IC50,Plasmodium falciparum [9],42.2 µg/mL
same,IC50,Plasmodium falciparum [22],130 µg/mL
same,IC50,Plasmodium falciparum [23],> 10 µM
CCn1cc(C(=O)O)c(=O)c2cc(F)c(N3CCN(C)CC3)cc21 [PEFLOXACIN],IC50,Plasmodium yoelii yoelii,86.3 µg/mL
same,IC50,Plasmodium falciparum [9],6.5 µg/mL
same,IC50,Plasmodium falciparum [22],83.7 µg/mL
same,IC50,Plasmodium falciparum [6],1300 µM
same,IC50,Plasmodium falciparum [7],850 µM
C=C[C@H]1CN2CC[C@H]1C[C@H]2[C@H](O)c1ccnc2ccc(OC)cc12 [QUININE],IC50,Plasmodium falciparum [23],0.018 µM
same,IC50,Plasmodium falciparum [5],0.11 µM
N[C@@H]1[C@H]2CN(c3nc4c(cc3F)c(=O)c(C(=O)O)cn4-c3ccc(F)cc3F)C[C@@H]12 [TROVAFLOXACIN],IC50,Plasmodium falciparum [9],9.2 µg/mL
same,IC50,Plasmodium falciparum [22],9.6 µg/mL
same,IC50,Plasmodium falciparum [17],34 µM
same,IC50,Plasmodium falciparum [18],34 µM
same,IC50,Plasmodium falciparum [19],36 µM
same,IC50,Plasmodium falciparum [20],18 µM
same,IC50,Plasmodium falciparum [21],33 µM
